# Source: US8003796B2, “Pyridone GPR119 G protein-coupled receptor agonists” (Bristol-Myers Squibb Company, priority 2007, dated 2011)
# Where a name gives a salt, the structure may show the parent alone.
# Biological target: T1, human GPR119 (Homo sapiens, UniProt Q8TDV5)
# T1 construct: expressed in transfected cells; host or cells: Flp-In-T-REx 293 (tetracycline-inducible)
# T1 sequence (Q8TDV5 1-335): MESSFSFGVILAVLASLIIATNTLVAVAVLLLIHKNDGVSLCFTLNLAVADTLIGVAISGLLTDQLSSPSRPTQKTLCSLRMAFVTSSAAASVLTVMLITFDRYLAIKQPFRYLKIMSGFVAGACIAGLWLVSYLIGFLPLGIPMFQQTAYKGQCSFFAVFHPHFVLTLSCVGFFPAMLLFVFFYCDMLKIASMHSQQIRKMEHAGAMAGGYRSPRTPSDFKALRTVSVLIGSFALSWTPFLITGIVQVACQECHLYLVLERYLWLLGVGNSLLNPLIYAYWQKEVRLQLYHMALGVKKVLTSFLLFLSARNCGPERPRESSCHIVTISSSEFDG
# Assay: Human Tet-inducible cAMP assay
# Type: cell-based
# Conditions: Flp-In-T-REx 293 tetracycline inducible cells expressing GPR119; cAMP by Hit Hunter cAMP kit; 1 hour at 37° C.; read-out: hGPR119 EC50
# Protocol: The in vitro modulation of recombinant human GPR119 was determined as follows.
# Human Tet-Inducible cAMP Assay
# Cell lines expressing GPR119 are generated using the Flp-In-T-REx 293 tetracycline inducible gene expression system are cultured in culture medium comprising the following components: DMEM#11965, 10% FBS, 2 mM L-glutamine, 200 ug/ml Hygromycin B, and 15 ug/ml blasticidin.
# For cAMP assays, cells are plated on 96 well plates (e.g., BD Falcon: REF 353948, black side, clear bottom, TC surface) at a density of about 4.5×10^4 cells per well in growth medium containing 1.0 ug/ml tetracycline (1.0 mg/ml stock). The cells are then incubated for 48 hours at 37° C.
# Following the incubation, the growth medium is removed from the wells and the wells rinsed (once) with the assay buffer included in the Hit Hunter cAMP kit (100 μl/well). Following the wash, 20 μl of assay buffer is added to each well, followed by addition of 10 μl of a 3× concentration compound working solution. The solution is then mixed. The final concentration range of compound is from about 10^−5M to about 10^−11M. The reagents are then incubated at 37° C. at 5% CO2 for 1 hour.
# The manufacturer's protocol may be followed for cAMP determination. The Hit Hunter cAMP kit protocol is outlined for the HIT-T15 cAMP assays described above.
# Compounds of the present invention were tested in the Human Tet-inducible cAMP assay described immediately above and the results shown in Table 1 below were obtained.
row,Compound,EC50
1,"N#Cc1ccc(-n2cc(Cl)c(OC3CCN(c4ncc(CCC(F)(F)F)cn4)CC3)cc2=O)cc1F [Example 263, 4-(5-chloro-2-oxo-4-(1-(5-(3,3,3-trifluoropropyl)pyrimidin-2-yl)piperidin-4-yloxy)pyridin-1(2H)-yl)-2-fluorobenzonitrile]",4 nM
2,"CS(=O)(=O)c1ccc(-n2ccc(OC3CCN(C(=O)c4cnc5ccccc5n4)CC3)cc2=O)cc1 [Example 78, 1-(4-(methylsulfonyl)phenyl)-4-(1-(quinoxaline-2-carbonyl)piperidin-4-yloxy)pyridin-2(1H)-one]",303 nM
3,"CCCc1cnc(N2CCC(Oc3ccn(-c4ccc(C(N)=O)cc4F)c(=O)c3)CC2)nc1 [Example 179, 3-fluoro-4-(2-oxo-4-(1-(5-propylpyrimidin-2-yl)piperidin-4-yloxy)pyridin-1(2H)-yl)benzamide, TFA salt]",276 nM
4,"CS(=O)(=O)c1ccc(-n2ccc(OC3CCN(C(=O)CCc4ccccc4)CC3)cc2=O)cc1 [Example 74, 1-(4-(methylsulfonyl)phenyl)-4-(1-(3-phenylpropanoyl)piperidin-4-yloxy)pyridin-2(1H)-one]",275 nM
5,"CC(C)OC(=O)N1CCC(Oc2ccn(-c3ccc(S(C)(=O)=O)nc3)c(=O)c2)CC1 [Example 189, isopropyl 4-(1-(6-(methylsulfonyl)pyridin-3-yl)-2-oxo-1,2-dihydropyridin-4-yloxy)piperidine-1-carboxylate]",7140 nM
6,"N#Cc1ccc(-n2cc(Cl)c(OC3CCN(c4ncc(C5CC5)cn4)CC3)cc2=O)cc1F [Example 229, 4-(5-chloro-4-(1-(5-cyclopropylpyrimidin-2-yl)piperidin-4-yloxy)-2-oxopyridin-1(2H)-yl)-2-fluorobenzonitrile]",4 nM
7,"CC(C)(C)OC(=O)N1CCC(Oc2cc(=O)n(-c3ccc(C#N)c(F)c3)cc2Cl)CC1 [Example 267, tert-butyl 4-(5-chloro-1-(4-cyano-3-fluorophenyl)-2-oxo-1,2-dihydropyridin-4-yloxy)piperidine-1-carboxylate]",4 nM
8,"CCCc1cnc(N2CCC(Oc3ccn(-c4ccc(S(C)(=O)=O)cc4C)c(=O)c3)CC2)nc1 [Example 178, 1-(2-methyl-4-(methylsulfonyl)phenyl)-4-(1-(5-propylpyrimidin-2-yl)piperidin-4-yloxy)pyridin-2(1H)-one]",265 nM
9,"CCCc1cnc(N2CCC(Oc3ccn(-c4ccc(S(C)(=O)=O)nc4C)c(=O)c3)CC2)nc1 [Example 206, 1-(2-methyl-6-(methylsulfonyl)pyridin-3-yl)-4-(1-(5-propylpyrimidin-2-yl)piperidin-4-yloxy)pyridin-2(1H)-one, TFA salt]",293 nM
10,"Cc1cc(OC2CCN(c3ncc(C4CC4)cn3)CC2)cc(=O)n1-c1ccc(S(C)(=O)=O)cc1 [Example 162, 4-(1-(5-cyclopropylpyrimidin-2-yl)piperidin-4-yloxy)-6-methyl-1-(4-(methylsulfonyl)phenyl)pyridin-2(1H)-one]",5000 nM
11,"CCCc1ccc(OC(=O)N2CCC(Oc3ccn(-c4ccc(S(C)(=O)=O)cc4)c(=O)c3)CC2)cn1 [Example 153, 6-propylpyridin-3-yl 4-(1-(4-(methylsulfonyl)phenyl)-2-oxo-1,2-dihydropyridin-4-yloxy)piperidine-1-carboxylate, TFA salt]",273 nM
12,"CCCc1cnc(N2CCC(Oc3ccn(-c4ccc(S(C)(=O)=O)c(F)c4)c(=O)c3)CC2)nc1 [Example 175, 1-(3-fluoro-4-(methylsulfonyl)phenyl)-4-(1-(5-propylpyrimidin-2-yl)piperidin-4-yloxy)pyridin-2(1H)-one]",8 nM

# Test system: male C57BL/6J mice
# Assay: Mouse oral glucose tolerance test
# Type: in vivo
# Conditions: oGTT in fasted mice; oral administration at -30 min, glucose 2 g/kg at time 0; plasma glucose AUC vs vehicle; dose not given
# Protocol: Mouse Oral Glucose Tolerance Test
# 24 male C57BL/6J mice (8-10 weeks old, average weight 28 g) were randomized into 4 groups (1 mouse/cage) of 6 mice per group based on fed plasma glucose and body weight. Prior to initiating the study, mice were fasted overnight and the next morning they were weighed and placed in the experimental lab. After 30 min in the environment, the mice were bled via tail tip at −30 min and immediately given their first oral administration of vehicle (0.5% Methocel, 0.1% Tween 80 in water) or compound solutions (5 ml/kg). At time 0 the mice were bled and given 50% glucose (2 g/kg) to initiate the oral glucose tolerance test (oGTT). The mice were bled 30, 60 and 120 min after the glucose load. Blood samples were drawn into potassium EDTA, placed on ice during the study and subsequently centrifuged for 10 min at 3000 rpm at 4° C. Plasma samples were diluted 11-fold for glucose analysis in the Cobas Mira System (Roche Diagnostics). Area under the curve was calculated from the plasma glucose time course data using the trapezoid rule with fasting plasma glucose as the baseline (GraphPad Prism Software). The statistical significance of the changes in the glucose AUCs resulting from the different treatments was determined by one-way ANOVA followed by Dunnett's test using the vehicle group as the control (JMP software, release 5.1.2).
row,Compound,Glucose Lowering (%)
1,"CC(C)OC(=O)N1CCC(Oc2ccn(-c3ccc(S(C)(=O)=O)cc3)c(=O)c2)CC1 [Example 3, isopropyl 4-(1-(4-(methylsulfonyl)phenyl)-2-oxo-1,2-dihydropyridin-4-yloxy)piperidine-1-carboxylate]",−29%
